# Measurements reported in US9506907B2, “Bioengineered human trabecular meshwork for biological applications” (The Research Foundation of State University of New York, priority 2012, dated 2016).
# Assays:
# [1] = tested on: HTM cells grown on SU-8 scaffolds (morphology, F-actin cytoskeleton); assay: SEM and confocal imaging of HTM cells on SU-8 scaffolds after Lat-B perfusion; type: cell-based, human; settings: FIG. 15F
# Text: 11. Follow up cell characterization studies may be conducted as desired with standard techniques well known to those of skill in the art. For this invention, samples were fixed and stained for SEM and confocal image analysis as described herein (FIGS. 11-15).
# Cells were characterized using standard procedures for SEM, Immunocytochemistry and confocal imaging, well known to those of skill in the art.
# (§1) A flow system apparatus for the controlled flow pressure measurement was constructed as shown in FIG. 2C was contained in a perfusion chamber housing comprised of at least a perfusion chamber with an integrated pressure transducer (FIG. 2C; 206), the sterilized, HTM biocompatible coated, SU-8 3-D micro- and nanostructured scaffold with or without HTM cells placed within a cell-culture insert (FIG. 2A; 202) and were secured in the scaffold holder, comprising at least a bottom element adapted for effluent (FIG. 2A; 203), a top element adapted for media entry (FIG. 2A; 201) inside the perfusion chamber (FIG. 2c). This flow system allowed for simultaneous control of the flow and measurement of the transmembrane pressure, permitting the exploration of the outflow characteristics of the in vitro HTM model. […] Back pressures were continuously monitored with a pressure transducer (FIG. 2C; 206) and recorded. […]
# [2] = tested on: bioengineered HTM (primary HTM cells on gelatin-coated 12 μm SU-8 scaffolds); assay: Perfusion of bioengineered HTM on SU-8 scaffold: transmembrane pressure at constant flow; type: cell-based, human
# Text: 1. The flow system apparatus (FIG. 2) incorporating the principles and features of this invention is contained within a controlled environment, which herein comprises of a stand-alone perfusion chamber, with a cell growth medium entry system (FIG. 2c; 204) and a screening agent (for example a glaucoma drug) entry system (FIG. 2c; 204) as shown in FIG. 2c. The system allows for the screening agent to be added to the perfusate at a pre-determined concentration for a pre-determined number of hours. […]
# 8. […] Back pressures were continuously monitored with a pressure transducer and recorded. […]
# as §1, with “2c).” for “2c). This flow system allowed for simultaneous control of the flow and measurement of the transmembrane pressure, permitting the exploration of the outflow characteristics of the in vitro HTM model.”
smiles,measurement,setting,value
"C/C1=C/C(=O)O[C@@H]2C[C@@H](CC[C@H](C)/C=C\CC1)O[C@@](O)([C@@H]1CSC(=O)N1)C2 [Lat-B, latruncunlin-B]",F-actin cytoskeleton (confocal),[1],elongated actin fibers were disturbed and became punctate actin bundles
same,perfusion pressure of the artificial trabecular meshwork after Lat-B treatment,"[2]; FIG. 16, indicates decreased flow resistance",decreased dramatically
same,decrease of the resistance to flow,"[2]; Lat-B added to the perfusate at 2 μM for 4 hours, constant flow, 34° C., N=8, p<0.05 (FIG. 16)",92±6%
